In ChEMBL document CHEMBL5113517, “Structure-Based Design, Optimization, and Evaluation of Potent Stabilized Peptide Inhibitors Disrupting MTDH and SND1 Interaction” (J Med Chem, 2022):
Numbered stars: 1 amine (or outer) side, 2 acyl side, 3 side chain; on linkers, the order of the positions; unused ones are H or OH. Bridge positions count the residues as written; N and C are the ends. Square brackets hold non-standard residues; d marks the D form. Peptide text beside a SMILES is read from it. I, II: the chains in the order shown. ξ: configuration not given here. X1 = N[C@@H](CC(=O)[*:1])C(=O)[*:2]; Dap = NC[C@H](N)C(=O)O; ξD = NC(CC(=O)O)C(=O)O

Assay: Binding affinity to MTDH /His-SND1 (unknown origin) expressed in Escherichia coli BL21(DE3) assessed as dissociation constant by fluorescence polarization assay
Set-up: species or system Homo sapiens
Conditions: not given; call rule not given here
In the case of CC(C)[C@H](NC(=O)[C@H](Cc1c[nH]c2ccccc12)NC(=O)[C@H](CC(N)=O)NC(=O)CNC(=O)[C@H](Cc1c[nH]c2ccccc12)NC(=O)[C@H](CCC(=O)O)NC(=O)[C@H](CCC(=O)O)NC(=O)[C@H](C)NC(=O)[C@@H]1CCCN1C(=O)[C@@H]1CNC(=O)[C@@H](NC(=O)[C@@H](N)CC(=O)O)CC(=O)N[C@@H](Cc2c[nH]c3ccccc23)C(=O)N[C@@H](CC(N)=O)C(=O)N1)C(=O)N[C@@H](CC(=O)O)C(=O)N[C@@H](CCC(=O)O)C(N)=O, the Kd is reported as 121 nM.
With C[C@@H]1NC(=O)C[C@H](N)C(=O)NC[C@@H](C(=O)N[C@@H](CC(=O)O)C(=O)N[C@@H](Cc2c[nH]c3ccccc23)C(=O)N[C@@H](CC(N)=O)C(=O)N[C@@H](C)C(=O)N2CCC[C@H]2C(=O)N[C@@H](C)C(=O)N[C@@H](CCC(=O)O)C(=O)N[C@@H](CCC(=O)O)C(=O)N[C@@H](Cc2c[nH]c3ccccc23)C(=O)NCC(=O)N[C@@H](CC(N)=O)C(N)=O)NC(=O)[C@H](C)NC1=O (AA[Dap]DWNAPAEEWGN-NH2; linker N-3 via X1) the Kd was 231 nM.
Work on CC[C@H](C)[C@H](NC(=O)[C@H](CC(N)=O)NC(=O)[C@H](Cc1c[nH]c2ccccc12)NC(=O)[C@H](CC(=O)O)NC(=O)[C@@H]1CNC(=O)[C@@H](N)CC(=O)N[C@@H](C)C(=O)N[C@@H](C)C(=O)N1)C(=O)N[C@@H](Cc1ccc(O)cc1)C(=O)N[C@@H](C)C(=O)N[C@@H](Cc1ccc(O)cc1)C(=O)N[C@@H](CCC(=O)O)C(=O)N[C@@H](Cc1c[nH]c2ccccc12)C(=O)NCC(=O)N[C@@H](CC(N)=O)C(=O)N[C@@H](CC(=O)O)C(N)=O (AA[Dap]DWNIYAYEWGND-NH2; linker N-3 via X1) yielded a Kd of 443 nM.
CC[C@H](C)[C@H](NC(=O)[C@H](CC(N)=O)NC(=O)[C@H](Cc1c[nH]c2ccccc12)NC(=O)[C@H](CC(=O)O)NC(=O)[C@@H]1CNC(=O)[C@@H](N)CC(=O)N[C@@H](C)C(=O)N[C@@H](C)C(=O)N1)C(=O)N[C@@H](Cc1ccc(O)cc1)C(=O)N[C@@H](C)C(=O)N[C@@H](Cc1ccc(O)cc1)C(=O)N[C@@H](CCC(=O)O)C(=O)N[C@@H](Cc1c[nH]c2ccccc12)C(=O)NCC(=O)N[C@@H](CC(N)=O)C(=O)N[C@@H](CCC(=O)O)C(N)=O (AA[Dap]DWNIYAYEWGNE-NH2; linker N-3 via X1) showed a Kd of 451 nM.
CC[C@H](C)[C@H](NC(=O)[C@H](CC(N)=O)NC(=O)[C@H](Cc1c[nH]c2ccccc12)NC(=O)[C@H](CC(=O)O)NC(=O)[C@@H]1CNC(=O)[C@@H](N)CC(=O)N[C@@H](C)C(=O)N[C@@H](C)C(=O)N1)C(=O)N[C@@H](Cc1ccc(O)cc1)C(=O)N[C@@H](C)C(=O)N[C@@H](Cc1ccc(O)cc1)C(=O)N[C@@H](CCC(=O)O)C(=O)N[C@@H](Cc1c[nH]c2ccccc12)C(=O)NCC(=O)N[C@@H](CC(N)=O)C(=O)N[C@@H](Cc1c[nH]cn1)C(N)=O (AA[Dap]DWNIYAYEWGNH-NH2; linker N-3 via X1) showed a Kd of 671 nM.
C[C@H](NC(=O)[C@@H]1CCCN1C(=O)[C@H](C)NC(=O)[C@H](CC(N)=O)NC(=O)[C@H](Cc1c[nH]c2ccccc12)NC(=O)[C@@H](N)CC(=O)O)C(=O)N[C@@H](CCC(=O)O)C(=O)N[C@@H](CCC(=O)O)C(=O)N[C@@H](Cc1c[nH]c2ccccc12)C(=O)NCC(=O)N[C@@H](CC(N)=O)C(=O)O (H-DWNAPAEEWGN-OH) showed a Kd of 211 nM.
CC(C)[C@H](NC(=O)[C@H](Cc1c[nH]c2ccccc12)NC(=O)[C@H](CC(N)=O)NC(=O)CNC(=O)[C@H](Cc1c[nH]c2ccccc12)NC(=O)[C@H](CCC(=O)O)NC(=O)[C@@H]1CNC(=O)CC(NC(=O)[C@H](CC(N)=O)NC(=O)[C@H](Cc2c[nH]c3ccccc23)NC(=O)[C@@H](N)CC(=O)O)C(=O)N2CCC[C@H]2C(=O)N[C@@H](C)C(=O)N1)C(=O)N[C@@H](CC(=O)O)C(=O)N[C@@H](CCC(=O)O)C(N)=O (stereo partly specified) (H-DWN[ξD]PA[Dap]EWGNWVDE-NH2; lactam 4-7) showed a Kd of 171 nM.
Work on CC(C)[C@H](NC(=O)[C@H](Cc1c[nH]c2ccccc12)NC(=O)[C@H](CC(N)=O)NC(=O)CNC(=O)[C@H](Cc1c[nH]c2ccccc12)NC(=O)[C@H](CCC(=O)O)NC(=O)[C@H](CCC(=O)O)NC(=O)[C@H](C)NC(=O)[C@@H]1CCCN1C(=O)[C@H](C)NC(=O)[C@H](CC(N)=O)NC(=O)[C@H](Cc1c[nH]c2ccccc12)NC(=O)[C@H](CC(=O)O)NC(=O)[C@H](CO)NC(=O)[C@@H](N)CC(N)=O)C(=O)O (H-NSDWNAPAEEWGNWV-OH) yielded a Kd of 152 nM.
For C[C@H](NC(=O)[C@H](CO)NC(=O)[C@@H](N)CO)C(=O)N[C@@H](CC(=O)O)C(=O)N1CCC[C@H]1C(=O)N[C@@H](CC(N)=O)C(=O)N[C@@H](CO)C(=O)N[C@@H](CC(=O)O)C(=O)N[C@@H](Cc1c[nH]c2ccccc12)C(=O)N[C@@H](CC(N)=O)C(=O)N[C@@H](C)C(=O)N1CCC[C@H]1C(=O)N[C@@H](C)C(=O)N[C@@H](CCC(=O)O)C(=O)N[C@@H](CCC(=O)O)C(=O)N[C@@H](Cc1c[nH]c2ccccc12)C(=O)NCC(=O)N[C@@H](CC(N)=O)C(=O)O (H-SSADPNSDWNAPAEEWGN-OH), the Kd was 118 nM.
CC(C)[C@H](NC(=O)[C@H](Cc1c[nH]c2ccccc12)NC(=O)[C@H](CC(N)=O)NC(=O)CNC(=O)[C@H](Cc1c[nH]c2ccccc12)NC(=O)[C@H](CCC(=O)O)NC(=O)[C@H](CCC(=O)O)NC(=O)[C@H](C)NC(=O)[C@@H]1CCCN1C(=O)[C@H](C)NC(=O)[C@H](CC(N)=O)NC(=O)[C@H](Cc1c[nH]c2ccccc12)NC(=O)[C@H](CC(=O)O)NC(=O)[C@H](CO)NC(=O)[C@H](CC(N)=O)NC(=O)[C@@H]1CCCN1C(=O)[C@H](CC(=O)O)NC(=O)[C@H](C)NC(=O)[C@H](CO)NC(=O)[C@@H](N)CO)C(=O)N[C@@H](CC(=O)O)C(=O)N[C@@H](CCC(=O)O)C(=O)O (H-SSADPNSDWNAPAEEWGNWVDE-OH) gave a Kd of 62.4 nM.
Work on CC(C)[C@H](NC(=O)[C@H](Cc1c[nH]c2ccccc12)NC(=O)[C@H](CC(N)=O)NC(=O)CNC(=O)[C@H](Cc1c[nH]c2ccccc12)NC(=O)[C@@H]1CNC(=O)[C@@H](NC(=O)[C@H](C)NC(=O)[C@H](CC(N)=O)NC(=O)[C@H](Cc2c[nH]c3ccccc23)NC(=O)[C@@H](N)CC(=O)O)CC(=O)N[C@@H](C)C(=O)N[C@@H](CCC(=O)O)C(=O)N1)C(=O)N[C@@H](CC(=O)O)C(=O)N[C@@H](CCC(=O)O)C(N)=O (I: AE[Dap]WGNWVDE-NH2 / II: H-DWNAD; amide I:3-II:C, I:N-II:5) yielded a Kd of 171 nM.
C[C@H](NC(=O)[C@H](CC(N)=O)NC(=O)[C@@H]1CNC(=O)[C@@H](N)CC(=O)N[C@@H](Cc2c[nH]c3ccccc23)C(=O)N[C@@H](CC(N)=O)C(=O)N1)C(=O)N[C@@H](CCC(=O)O)C(=O)N[C@@H](CCC(=O)O)C(=O)N[C@@H](Cc1c[nH]c2ccccc12)C(=O)NCC(=O)N[C@@H](CC(N)=O)C(N)=O (WN[Dap]NAEEWGN-NH2; linker N-3 via X1) gave a Kd of 697 nM.
Work on C[C@H](NC(=O)[C@H](CC(N)=O)NC(=O)[C@@H]1CNC(=O)[C@@H](N)CC(=O)N[C@@H](Cc2c[nH]c3ccccc23)C(=O)N[C@@H](CC(N)=O)C(=O)N1)C(=O)N[C@@H](Cc1ccccc1)C(=O)N[C@@H](CCC(=O)O)C(=O)N[C@@H](Cc1c[nH]c2ccccc12)C(=O)NCC(=O)N[C@@H](CC(N)=O)C(N)=O (WN[Dap]NAFEWGN-NH2; linker N-3 via X1) yielded a Kd of 1720 nM.
Compound C[C@H](NC(=O)[C@H](CC(N)=O)NC(=O)[C@@H]1CNC(=O)[C@@H](N)CC(=O)N[C@@H](Cc2c[nH]c3ccccc23)C(=O)N[C@@H](CC(N)=O)C(=O)N1)C(=O)N[C@@H](Cc1ccc(O)cc1)C(=O)N[C@@H](CCC(=O)O)C(=O)N[C@@H](Cc1c[nH]c2ccccc12)C(=O)NCC(=O)N[C@@H](CC(N)=O)C(N)=O (WN[Dap]NAYEWGN-NH2; linker N-3 via X1) has a Kd of 932 nM.
Work on C[C@H](NC(=O)[C@@H]1CCCN1C(=O)[C@@H]1CNC(=O)[C@@H](N)CC(=O)N[C@@H](Cc2c[nH]c3ccccc23)C(=O)N[C@@H](CC(N)=O)C(=O)N1)C(=O)N[C@@H](CCC(=O)O)C(=O)N[C@@H](CCC(=O)O)C(=O)N[C@@H](Cc1c[nH]c2ccccc12)C(=O)NCC(=O)N[C@@H](CC(N)=O)C(N)=O (WN[Dap]PAEEWGN-NH2; linker N-3 via X1) yielded a Kd of 584 nM.
In the case of C[C@H](NC(=O)[C@@H]1CCCN1C(=O)[C@@H]1CNC(=O)[C@@H](N)CC(=O)N[C@@H](Cc2c[nH]c3ccccc23)C(=O)N[C@@H](CC(N)=O)C(=O)N1)C(=O)N[C@@H](Cc1ccccc1)C(=O)N[C@@H](CCC(=O)O)C(=O)N[C@@H](Cc1c[nH]c2ccccc12)C(=O)NCC(=O)N[C@@H](CC(N)=O)C(N)=O (WN[Dap]PAFEWGN-NH2; linker N-3 via X1), the Kd is reported as 992 nM.
Work on C[C@H](NC(=O)[C@@H]1CCCN1C(=O)[C@@H]1CNC(=O)[C@@H](N)CC(=O)N[C@@H](Cc2c[nH]c3ccccc23)C(=O)N[C@@H](CC(N)=O)C(=O)N1)C(=O)N[C@@H](Cc1ccc(O)cc1)C(=O)N[C@@H](CCC(=O)O)C(=O)N[C@@H](Cc1c[nH]c2ccccc12)C(=O)NCC(=O)N[C@@H](CC(N)=O)C(N)=O (WN[Dap]PAYEWGN-NH2; linker N-3 via X1) yielded a Kd of 585 nM.
Compound C[C@H](NC(=O)[C@H](Cc1ccc(O)cc1)NC(=O)[C@@H]1CNC(=O)[C@@H](N)CC(=O)N[C@@H](Cc2c[nH]c3ccccc23)C(=O)N[C@@H](CC(N)=O)C(=O)N1)C(=O)N[C@@H](Cc1ccc(O)cc1)C(=O)N[C@@H](CCC(=O)O)C(=O)N[C@@H](Cc1c[nH]c2ccccc12)C(=O)NCC(=O)N[C@@H](CC(N)=O)C(N)=O (WN[Dap]YAYEWGN-NH2; linker N-3 via X1) has a Kd of 943 nM.

Assay: Drug uptake in human MDA-MB-231 cells assessed as increase in cell penetration at 10 uM incubated for 12 hrs by flow cytometry method
Format: ADME, cell-based
Conditions: mda-mb-231, 12 h
In the case of CC(C)[C@H](NC(=O)[C@H](Cc1c[nH]c2ccccc12)NC(=O)[C@H](CC(N)=O)NC(=O)CNC(=O)[C@H](Cc1c[nH]c2ccccc12)NC(=O)[C@H](CCC(=O)O)NC(=O)[C@H](CCC(=O)O)NC(=O)[C@H](C)NC(=O)[C@@H]1CCCN1C(=O)[C@@H]1CNC(=O)[C@@H](NC(=O)[C@@H](N)CC(=O)O)CC(=O)N[C@@H](Cc2c[nH]c3ccccc23)C(=O)N[C@@H](CC(N)=O)C(=O)N1)C(=O)N[C@@H](CC(=O)O)C(=O)N[C@@H](CCC(=O)O)C(N)=O, the Drug uptake is reported as “Active”.
With CC(C)[C@H](NC(=O)[C@H](Cc1c[nH]c2ccccc12)NC(=O)[C@H](CC(N)=O)NC(=O)CNC(=O)[C@H](Cc1c[nH]c2ccccc12)NC(=O)[C@H](CCC(=O)O)NC(=O)[C@@H]1CNC(=O)CC(NC(=O)[C@H](CC(N)=O)NC(=O)[C@H](Cc2c[nH]c3ccccc23)NC(=O)[C@@H](N)CC(=O)O)C(=O)N2CCC[C@H]2C(=O)N[C@@H](C)C(=O)N1)C(=O)N[C@@H](CC(=O)O)C(=O)N[C@@H](CCC(=O)O)C(N)=O (stereo partly specified) (H-DWN[ξD]PA[Dap]EWGNWVDE-NH2; lactam 4-7) the Drug uptake was “Active”.
For CC(C)[C@H](NC(=O)[C@H](Cc1c[nH]c2ccccc12)NC(=O)[C@H](CC(N)=O)NC(=O)CNC(=O)[C@H](Cc1c[nH]c2ccccc12)NC(=O)[C@@H]1CNC(=O)[C@@H](NC(=O)[C@H](C)NC(=O)[C@H](CC(N)=O)NC(=O)[C@H](Cc2c[nH]c3ccccc23)NC(=O)[C@@H](N)CC(=O)O)CC(=O)N[C@@H](C)C(=O)N[C@@H](CCC(=O)O)C(=O)N1)C(=O)N[C@@H](CC(=O)O)C(=O)N[C@@H](CCC(=O)O)C(N)=O (I: AE[Dap]WGNWVDE-NH2 / II: H-DWNAD; amide I:3-II:C, I:N-II:5), the Drug uptake was “Active”.
